Measurements published in patent US20070082883A1, “HIV protease inhibitors” (THE BOARD OF TRUSTEES OF THE UNIVERSITY OF ILLINOIS, priority 2002, published 2007).

These compounds were tested against T1, HIV-1 protease (Human immunodeficiency virus type 1 group M subtype B, UniProt P04585) (assay: HIV-1 Protease Inhibition Assay). Details: cells marked (pM) in a column headed nM.
T1 construct: made in house; host or cells: E. coli BL21 (dE3)pLysS, pET30a vector
Assay type: biochemical
Source text: Assays of the dose-response effect of inhibitor compounds can be described as a curve expressing a degree of inhibition as a function of concentration. The curve theoretically passes through a point at which the concentration is sufficient to reduce activity of the HIV protease enzyme to a level that is 50% that of the difference between minimal and maximal enzyme activity in the assay.
HIV-1 Protease Inhibition Assay
The HIV-1 protease gene was subcloned into the pET30a vector (Novagen) and then transformed into BL21 (dE3)pLysS cells for protein expression. Protein expression and purification were followed according to Tang's procedure (Hong et al., Biochemistry, 1996, 35, 10627-10633). […] The inclusion body containing some bacterial proteins was thoroughly washed by using TRITON X-100, solubilized in […] and passed through the Q-sepharose column to remove the bacterial proteins which interfered with subsequent refolding steps. HIV-1 protease was refolded from the urea to an active form by dialysis. As a final step, gel filtration chromatography was used to remove impurities after refolding. Activities of purified HIV-1 protease were examined using a fluorogenic substrate, 2-aminobenzoyl-Thr-Ile-Nle-Phe(pNO2)-Gln-Arg-NH2 (Novabiochem). […] In the condition of So<<Km, v=Eo(kcat/Km)So, where Eo is the total enzyme concentration, and So is the substrate concentrate. […] Assays are carried out as described by Toth and Marshall (Toth et al., Int. J. Pept. Protein Res., 1990, 36, 544-50).
Work on COc1ccc(S(=O)(=O)N(C[C@H]2CCC(=O)N2)C[C@@H](O)[C@H](Cc2ccccc2)NC(=O)OC2CO[C@H]3OCC[C@@H]23)cc1 (some centres unmarked) [Compound 273] yielded an IC50 of 17 pM.

Same assay, conditions: fluorogenic substrate assay
For Cc1ccc(S(=O)(=O)N(CC(C)C)C[C@@H](O)[C@H](CC2CCN(C(=O)c3ccccc3)CC2)NC(=O)OC2CCCC23CCCO3)cc1 (some centres unmarked) [Compound 148], the IC50 was 185000 pM. O=C(N[C@@H](Cc1ccccc1)[C@H](O)CN1CCCCCCCCCOc2cccc(c2)S1(=O)=O)O[C@H]1CO[C@H]2OCCC21 (some centres unmarked) [Compound 225b] showed an IC50 of 7800 pM and a Ki of 2.4 nM. COc1ccc(S(=O)(=O)N(C[C@@H](O)[C@H](Cc2ccccc2)NC(=O)O[C@H]2C[C@H]3CCO[C@H]3C2)C2CN(C)C2)cc1 [Compound 205] gave an IC50 of 87000 pM and a Ki of 27 nM. For COc1ccc(S(=O)(=O)N(CC(C)C)C[C@@H](O)[C@H](Cc2ccc(O)cc2)NC(=O)O[C@H]2CO[C@H]3OCCC32)cc1 (some centres unmarked) [Compound 213], the IC50 was 4100 pM and the Ki was 1.3 nM. Cc1ccc(S(=O)(=O)N(CC(C)C)C[C@@H](O)[C@H](CC2CCN(C(=O)c3ccccc3)CC2)NC(=O)OC2CO[C@H]3OCCC23)cc1 (some centres unmarked) [Compound 146] gave an IC50 of 1800 pM. For COc1ccc(S(=O)(=O)N(CC(C)C)CC(O)C(Cc2ccc(OCc3ccccc3)cc2)NC(=O)OC(C)(C)C)cc1 (centres unmarked) [Compound 210], the IC50 was 13000 pM and the Ki was 4.1 nM. CC(C)(C)OC(=O)NN(C[C@@H](O)[C@H](Cc1ccccc1)NC(=O)O[C@H]1CO[C@H]2OCCC21)S(=O)(=O)c1ccc(F)c(N)c1 (some centres unmarked) [Compound 190] showed an IC50 of 3500 pM and a Ki of 1.1 nM. For CC(C)CN(C[C@@H](O)[C@H](Cc1ccccc1)NC(=O)OC1CO[C@H]2OCC[C@@H]12)C1CC(C)(C)NC1=O (some centres unmarked) [Compound 269], the IC50 was 3400 pM. In the case of O=C(N[C@@H](Cc1ccccc1)[C@H](O)CN1CCCC/C=C\CCCCOc2cccc(c2)S1(=O)=O)O[C@@H]1CC2CCO[C@@H]2C1 (some centres unmarked) [Compound 235], the IC50 is reported as 9300 pM and the Ki is reported as 2.9 nM. Compound CC(C)CN(C[C@@H](O)[C@H](Cc1ccccc1)NC(=O)OC1CO[C@H]2OCC[C@@H]12)C1CC2(CCCC2)NC1=O (some centres unmarked) [Compound 270] has an IC50 of 6400 pM. C=CCCCCOc1cccc(S(=O)(=O)N(CCCCC=C)C[C@@H](O)[C@H](Cc2ccccc2)NC(=O)O[C@H]2CO[C@H]3OCCC32)c1 (some centres unmarked) [Compound 225c] gave an IC50 of 8500 pM and a Ki of 2.6 nM. CC(C)(C)NC(=O)[C@@H]1C[C@@H]2CCCC[C@@H]2CN1C[C@@H](O)[C@H](Cc1ccccc1)NC(=O)OC1CC2CCO[C@@H]2C1 (some centres unmarked) [Compound 143] showed an IC50 of 3000 pM. CNCc1ccc(S(=O)(=O)N(CC(C)C)C[C@@H](O)[C@H](Cc2ccccc2)NC(=O)OC2CC3CCO[C@@H]3C2)cc1 (some centres unmarked) [Compound 126] was tested, and the IC50 was 15000 pM. O=C(N[C@@H](Cc1ccccc1)[C@H](O)CN1CCCC/C=C/CCCOc2cccc(c2)S1(=O)=O)O[C@H]1CO[C@H]2OCCC21 (some centres unmarked) [Compound 225a] showed an IC50 of 7800 pM and a Ki of 2.4 nM. Cc1ccc(S(=O)(=O)N(CCN(C)C)C[C@@H](O)[C@H](Cc2ccccc2)NC(=O)O[C@@H]2CO[C@@H]3OCCC[C@@H]32)cc1CO [Compound 160] was tested, and the IC50 was 231000 pM and the Ki was 72 nM. Compound COc1ccc(S(=O)(=O)N(C[C@@H](O)[C@H](Cc2ccccc2)NC(=O)O[C@H]2CO[C@H]3OCCC32)C2CN(C)C2)cc1 (some centres unmarked) [Compound 201] has an IC50 of 5600 pM and a Ki of 1.7 nM. COc1ccc(S(=O)(=O)N(C[C@H]2CCC(=O)N2)C[C@@H](O)[C@H](Cc2ccccc2)NC(=O)OC2CC[C@H]3OCC[C@@H]23)cc1 (some centres unmarked) [Compound 277] gave an IC50 of 100 pM. CC(C)CN(C[C@@H](O)[C@H](Cc1ccccc1)NC(=O)O[C@H]1C[C@H]2CCO[C@H]2C1)S(=O)(=O)c1cncc(N)c1 [Compound 172] was tested, and the IC50 was 5100 pM and the Ki was 1.6 nM. Compound CC(C)CN(C[C@@H](O)[C@H](Cc1ccccc1)NC(=O)O[C@H]1CO[C@H]2OCC[C@H]21)[C@@H]1C(=O)Nc2ccccc21 [Compound 250] has a Ki of 1 nM. CC(C)(C)OC(=O)N[C@@H](Cc1ccccc1)[C@H](O)CN(C[C@@H]1CCC(=O)N1)S(=O)(=O)c1ccc([N+](=O)[O-])cc1 [Compound 307b] showed an IC50 of 12000 pM.
